From patent publication US20030055106A1, “Therapeutic uses of peroxometallic compounds” (priority 1999, published 2003)

Legend:
[1] = test system: vitelline membrane of chick embryos; experiment: Embryonic vascularization test (EVT) ex ovo; type: in vivo
Text: FIG. 2: A and B show an anti-angiogenic response to bpV(phen), orthovanadate (Van) and protamine (Prot) using a vascularization test on the vitelline membrane of chick embryos. Each point represents a minimum of 15 embryos (15 to 28).
The normal development of a chick embryo involves the formation of an external vascular system which is located in the vitelline membrane and which carries nutrients from the vitellus (yolk of the egg) to the developing embryo. When placed onto the vitelline membrane, anti-angiogenic substances can inhibit blood vessel development in the vitelline membrane. To facilitate access to the vitelline membrane, chick embryos were transferred to a sterile culture box (Petri dish) and placed in a humidity- and temperature-controlled incubator. Embryos could then develop in this ex ovo condition for several days.
An aliquot of the tested compound was mixed with a methylcellulose solution and allowed to air-dry into thin discs. Methylcellulose forms an inert matrix from which the tested compound can diffuse slowly. Methylcellulose discs containing the tested compound were placed on the external border of the vascular perimeter of the vitelline membrane where the angiogenic process was still active.
The effects of the discs containing the tested compound on proximal vascular development were, in all cases, compared with those of discs containing control buffer. The discs were placed on the embryos' vitelline membrane on Day 0 or Day 1 of the ex ovo growth process; at this point, only beginnings of the main blood vessels are invading the vitellus. The embryos were then put in culture conditions until vascularization was assessed (approximately 24 h). Control buffer- and compound-containing discs were in all cases added simultaneously on the vitelline membrane of the same embryo. Both discs were arranged in a symmetrical fashion with respect to the cephalo-caudal axis of the embryo in order to minimize inter-individual variations when comparing the tested compounds with controls.
[…] After one day in culture, the level of vascularization in the area covered by the discs was graded by a pair of scientists in the usual blind fashion. To facilitate the location of the discs, black O-rings were placed around them just after their placement on the vitelline membrane. The evaluation scale for the EVTs was based on two different scoring systems.
Blood vessel formation was assessed in a blind fashion. The areas of the vitelline membranes that lay beneath the methylcellulose discs were scored for the degree of vascularization, using two scoring systems (“N/+” or “1-2-3”). The following selection criteria were used:
A score of “N” for “Normal” was attributed when all the following conditions were met:
Blood vessels in the evaluated area grew along their path with no abnormal deviation. Collateral branching density was normal and the growth path of the lateral branches was also normal.
A score of “+” was attributed when at least one of the following conditions was met:
1-2-3 Grading Scale System:
A score of 3 was attributed when the following conditions were met:
A score of 2 was attributed when at least one of the following conditions was met:
A score of 1 was attributed when at least one of the following conditions was met:
A score of 3 meant that blood vessel development was normal whereas a score of 1 indicated the greatest degree of angiostatic activity.

[2] = test system: ZR-75-1 human breast cancer; experiment: ZR-75-1 human breast cancer xenograft; type: in vivo, Female homozygous HSD nu/nu athymic mice; conditions: 2.5 mg/Kg daily i.p., 42 days; E1 replacement
Procedure: A) ZR-75-1 human breast cancer: ZR-75-1 human breast cancer cells obtained from the American Tissue Culture Collection (Rockville, Md.) were cultured in phenol red-free RPMI 1640. […] Female homozygous HSD nu/nu athymic mice (50 days old) were obtained from Harlan Sprague Dawley Inc. (Indianapolis, Ind.). Five mice were housed per vinyl cage, which was equipped with air filter lids and kept in laminar air flow hoods under pathogen-limiting conditions. The photoperiod was composed of a period of 14 h of light and a period of 10 h of darkness. Cages, bedding, and food (Agway Pro-Lab R-M-H diet #4018) were autoclaved prior to use. […] Bilateral ovariectomy (OVX) was performed on all animals one week prior to cell inoculation, under 2.5% isoflurane anesthesia mixed with oxygen. Simultaneously, an oestrogen (E2) implant was inserted subcutaneously to stimulate […] tumor growth and appearance. E2 implants were prepared in 1-cm long silastic tubing (inside diameter, 0.062 inch; outside diameter, 0.095 inch) containing 0.5 cm of estradiol/cholesterol diluted at a ratio of 1:10 (w:w). […] Statistical significance of treatment effect was assessed by repeated measures ANOVA after applying a power transformation to equalize residual variances and linearize the tumor growth curves.

ETs (ET-1, ET-2, ET-3) = experiment: Plasma endothelin levels after insulin (RIA); type: in vivo; conditions: rats, bpV(phen) 0.5 mg/100 g b.w. i.p. 16 hours before insulin
Procedure: The data presented in Table III show the effect of bpV(phen) on the plasmatic levels of ETs. […] Two minutes following insulin administration (1.5 μg/100 g b.w, or vehicle), the plasma levels of ETs were determined. Insulin administration induced a strong increase of seric ET concentration (54). […] In addition, bpV(phen) decreased the insulin-stimulated levels of plasmatic ETs below control levels. […] ETs (ET-1, ET-2, ET-3) were measured by RIA (Amersham kit RPA 555) after lyophilization and extraction on C2 columns (500 mg). Results are mean ±SEM, p<0.0209, control (n=4) vs Insulin, pV (n=3).

O.O.O.OO.OO.[K+].[OH-].[V].c1cnc2c(c1)ccc1cccnc12 [bpV(phen), potassium bisperoxo(1,10-phenanthroline)oxovanadate] was tested, and the “Anti-angio.activity 1 to 3 (1: no angiogenesis; 3: normal angiogenesis)” value ([1]; 0.001 μg, Assay 1) was 2.7, the “Anti-angio.activity % (proportion of embryos showing an anti-angiogenic response)” value (“Anti-angio.activity %” for short) ([1]; 0.001 μg, Assay 1) was 12% and the “Anti-angio.activity 1 to 3 (1: no angiogenesis; 3: normal angiogenesis)” value ([1]; 0.001 μg, Assay 2) was 2.4. For the same compound, the “Anti-angio.activity %” value ([1]; 0.001 μg, Assay 2) was 20%, the “Anti-angio.activity 1 to 3 (1: no angiogenesis; 3: normal angiogenesis)” value ([1]; 0.001 μg, Assay 5) was 2.6 and the “Anti-angio.activity %” value ([1]; 0.001 μg, Assay 5) was 16%. For the same compound, the “Anti-angio.activity 1 to 3 (1: no angiogenesis; 3: normal angiogenesis)” value ([1]; 0.01 μg, Assay 1) was 2.3, the “Anti-angio.activity %” value ([1]; 0.01 μg, Assay 1) was 31% and the “Anti-angio.activity 1 to 3 (1: no angiogenesis; 3: normal angiogenesis)” value ([1]; 0.01 μg, Assay 2) was 2.5. For the same compound, the “Anti-angio.activity %” value ([1]; 0.01 μg, Assay 2) was 19%, the “Anti-angio.activity 1 to 3 (1: no angiogenesis; 3: normal angiogenesis)” value ([1]; 0.01 μg, Assay 5) was 2.4 and the “Anti-angio.activity %” value ([1]; 0.01 μg, Assay 5) was 25%. For the same compound, the “Anti-angio.activity 1 to 3 (1: no angiogenesis; 3: normal angiogenesis)” value ([1]; 0.1 μg, Assay 1) was 1.8, the “Anti-angio.activity %” value ([1]; 0.1 μg, Assay 1) was 61% and the “Anti-angio.activity 1 to 3 (1: no angiogenesis; 3: normal angiogenesis)” value ([1]; 0.1 μg, Assay 2) was 2.2. For the same compound, the “Anti-angio.activity %” value ([1]; 0.1 μg, Assay 2) was 45%, the “Anti-angio.activity 1 to 3 (1: no angiogenesis; 3: normal angiogenesis)” value ([1]; 0.1 μg, Assay 5) was 2.0 and the “Anti-angio.activity %” value ([1]; 0.1 μg, Assay 5) was 53%. The “Anti-angio.activity 1 to 3 (1: no angiogenesis; 3: normal angiogenesis)” value ([1]; 1 μg, Assay 1) was 1.6, the “Anti-angio.activity %” value ([1]; 1 μg, Assay 1) was 86% and the “Anti-angio.activity 1 to 3 (1: no angiogenesis; 3: normal angiogenesis)” value ([1]; 1 μg, Assay 2) was 1.1. The “Anti-angio.activity %” value ([1]; 1 μg, Assay 2) was 100%, the “Anti-angio.activity 1 to 3 (1: no angiogenesis; 3: normal angiogenesis)” value ([1]; 1 μg, Assay 4) was 1.0 and the “Anti-angio.activity %” value ([1]; 1 μg, Assay 4) was 96%. The “Anti-angio.activity 1 to 3 (1: no angiogenesis; 3: normal angiogenesis)” value ([1]; 1 μg, Assay 5) was 1.2, the “Anti-angio.activity %” value ([1]; 1 μg, Assay 5) was 94% and the “approximate IC50, neovascularization (regardless of the scoring system)” value ([1]; per methylcellulose disc) was about 0.1 µg. The tumor size [2] was “do not resulted in increase of tumor size”, the “insulin-induced increase of seric ET concentration” value (ETs (ET-1, ET-2, ET-3)) was “completely abolished” and the Plasma endothelins (ETs (ET-1, ET-2, ET-3); two minutes after insulin 1.5 μg/100 g b.w., mean ±SEM, n=3) was 77.68 ± 3.08 pg/mL.
